Assay results as given in ChEMBL document CHEMBL1201862, “PubChem BioAssay data set” (2004).
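All cell lines were grown in 96-well plates and treated with compound for 48 hours. Abbreviation: GI50, concentration required for 50% inhibition of growth.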 The source made the active and inactive calls. Cut-off read from the data, not from the text of the source: active = GI50 up to about 1.1 µM and inactive = higher.

Experiments:
Assay in all cases: NCI-60 cell line screen, 48 h
[1] = tested on: KM12
[2] = tested on: HT-29
[3] = tested on: MOLT-4
[4] = tested on: HCT-15
[5] = tested on: OVCAR-4
[6] = tested on: SF-539
[7] = tested on: SK-OV-3
[8] = tested on: NCI-H226
[9] = tested on: RPMI-8226
[10] = tested on: RXF 393
[11] = tested on: SF-295
[12] = tested on: M14
[13] = tested on: SR
[14] = tested on: CAKI-1
[15] = tested on: K562
[16] = tested on: A549
[17] = tested on: UO-31
[18] = tested on: UACC-257
[19] = tested on: U-251
[20] = tested on: UACC-62

Compound	GI50 [1]	GI50 [2]	GI50 [3]	GI50 [4] [µM]	GI50 [5]	GI50 [6]	GI50 [7]	GI50 [8]	GI50 [9]	GI50 [10]	GI50 [11]	GI50 [12]	GI50 [13]	GI50 [14]	GI50 [15]	GI50 [16]	GI50 [17]	GI50 [18]	GI50 [19]	GI50 [20]
O=C1CC(c2ccsc2)n2cccc21 (centres undefined)	> 100 µM (inactive)	> 100 µM (inactive)	> 10 µM (inactive)	> 100	> 100 µM (inactive)	> 100 µM (inactive)	> 100 µM (inactive)	> 100 µM (inactive)	> 100 µM (inactive)	> 100 µM (inactive)	> 100 µM (inactive)	> 100 µM (inactive)	> 100 µM (inactive)	> 100 µM (inactive)	> 100 µM (inactive)	> 100 µM (inactive)	> 100 µM (inactive)	> 100 µM (inactive)	> 100 µM (inactive)	> 100 µM (inactive)
O=c1[nH]cnc2[nH]nnc12	32.7 µM (inactive)	7.96 µM (inactive)	0.726 µM (active)	11.6	4.93 µM (inactive)	3.85 µM (inactive)	4.31 µM (inactive)	5.6 µM (inactive)	0.685 µM (active)	2.62 µM (inactive)	8.65 µM (inactive)	1.11 µM (active)	0.92 µM (active)	1.25 µM (inactive)	0.593 µM (active)	84.9 µM (inactive)	2.73 µM (inactive)	4.39 µM (inactive)	34.6 µM (inactive)	0.968 µM (active)
Cn1nc2ccc3nccc(NCCNCCCl)c3c2n1	> 100 µM (inactive)	> 100 µM (inactive)	> 100 µM (inactive)	> 100	> 100 µM (inactive)	> 100 µM (inactive)	> 100 µM (inactive)	> 100 µM (inactive)	> 100 µM (inactive)	> 100 µM (inactive)	> 100 µM (inactive)	> 100 µM (inactive)	> 100 µM (inactive)	> 10 µM (inactive)	> 100 µM (inactive)	> 100 µM (inactive)	> 100 µM (inactive)			> 100 µM (inactive)
O=c1cc(-c2ccccc2)oc2cc(OCCCOc3ccc4c(=O)cc(-c5ccccc5)oc4c3)ccc12	> 100 µM (inactive)	> 100 µM (inactive)	> 100 µM (inactive)	> 100	> 100 µM (inactive)	> 100 µM (inactive)	> 100 µM (inactive)	> 100 µM (inactive)	> 100 µM (inactive)	> 100 µM (inactive)	> 100 µM (inactive)	> 100 µM (inactive)	> 100 µM (inactive)	> 100 µM (inactive)	> 100 µM (inactive)	> 100 µM (inactive)		> 100 µM (inactive)	> 100 µM (inactive)	> 100 µM (inactive)
CCCC/C(C)=N/NC(N)=S	> 100 µM (inactive)	> 100 µM (inactive)	> 100 µM (inactive)	> 100		> 100 µM (inactive)	> 100 µM (inactive)	> 100 µM (inactive)	> 100 µM (inactive)	> 100 µM (inactive)	> 100 µM (inactive)	> 100 µM (inactive)	> 100 µM (inactive)	> 100 µM (inactive)	> 100 µM (inactive)	> 100 µM (inactive)	> 100 µM (inactive)	> 100 µM (inactive)	> 100 µM (inactive)	> 100 µM (inactive)
COc1cc2nc(-c3cccs3)[nH]c(=O)c2cc1OC	> 100 µM (inactive)	> 100 µM (inactive)		> 100	> 100 µM (inactive)	38.7 µM (inactive)	> 100 µM (inactive)	> 100 µM (inactive)	65.5 µM (inactive)	> 100 µM (inactive)	86.7 µM (inactive)	> 100 µM (inactive)	13.8 µM (inactive)	> 100 µM (inactive)	> 100 µM (inactive)	> 100 µM (inactive)	> 100 µM (inactive)	> 100 µM (inactive)	61.7 µM (inactive)	> 100 µM (inactive)
C=C(C)CCC1CC=[N+]([O-])OC1C(C)(C)C (centres undefined)	28.2 µM (inactive)	44.5 µM (inactive)	39.2 µM (inactive)	26.1		72.6 µM (inactive)	> 100 µM (inactive)	15.5 µM (inactive)	41.3 µM (inactive)	18.2 µM (inactive)	> 100 µM (inactive)	21.1 µM (inactive)	36.3 µM (inactive)	26.2 µM (inactive)	> 100 µM (inactive)	20.9 µM (inactive)	30.3 µM (inactive)	58.6 µM (inactive)	46.9 µM (inactive)	36.3 µM (inactive)
O=C(Nc1ccc(C(F)(F)F)cc1[N+](=O)[O-])C(=O)Nn1c(S)nc2ccccc2c1=O	> 100 µM (inactive)	> 100 µM (inactive)	> 100 µM (inactive)	> 100	> 100 µM (inactive)	> 100 µM (inactive)	> 100 µM (inactive)	> 100 µM (inactive)	> 100 µM (inactive)	> 100 µM (inactive)	> 100 µM (inactive)		> 100 µM (inactive)	> 100 µM (inactive)	> 100 µM (inactive)	> 100 µM (inactive)	> 100 µM (inactive)	> 100 µM (inactive)	> 100 µM (inactive)	> 100 µM (inactive)
CCCCSCc1nc2nc(Cl)c(Cl)nc2[nH]1	29.8 µM (inactive)	30.8 µM (inactive)	19.5 µM (inactive)	23.4	29.5 µM (inactive)	50.2 µM (inactive)	18.7 µM (inactive)	33.7 µM (inactive)	12.9 µM (inactive)	19.4 µM (inactive)	14.5 µM (inactive)	23.8 µM (inactive)	22 µM (inactive)	23.7 µM (inactive)	24 µM (inactive)	28.8 µM (inactive)		16.1 µM (inactive)	20.9 µM (inactive)	10.5 µM (inactive)
O=C(CC(=O)c1ccc([N+](=O)[O-])cc1)C(=O)Nc1nccs1	> 100 µM (inactive)	> 100 µM (inactive)	> 100 µM (inactive)	> 100	> 100 µM (inactive)	> 100 µM (inactive)	> 100 µM (inactive)	> 100 µM (inactive)	> 100 µM (inactive)	> 100 µM (inactive)		> 100 µM (inactive)	> 100 µM (inactive)	> 100 µM (inactive)	> 100 µM (inactive)	> 100 µM (inactive)	> 100 µM (inactive)		> 100 µM (inactive)	> 100 µM (inactive)
COc1ccc(/C(Cl)=C(\C=O)c2ccc(Cl)cc2)cc1OC		4.97 µM (inactive)	2.12 µM (inactive)	3.29	5.12 µM (inactive)	9.79 µM (inactive)	34.8 µM (inactive)	4.59 µM (inactive)	3.32 µM (inactive)	6.01 µM (inactive)	4.15 µM (inactive)	22.4 µM (inactive)	2.49 µM (inactive)	4.59 µM (inactive)	3.69 µM (inactive)	6.17 µM (inactive)	4.68 µM (inactive)	6.55 µM (inactive)	3.85 µM (inactive)	5.97 µM (inactive)
